Measured values: ChEMBL document CHEMBL5608209, “Biological and structural investigation of tetrahydro-β-carboline-based selective HDAC6 inhibitors with improved stability” (Eur J Med Chem, 2024)
Calls of active or inactive are those of the source. The calls are words filed in the database; no cut-off is given here.

Columns and labels:
in vitro [1] = conditions: human, plasma diluted in PBS (1:2 v/v)
Description: Stability in human plasma in PBS (1:2 v/v) assessed as intact compound at 37 degC measured after 24 hrs

in vitro [2] = conditions: human, plasma diluted in PBS (1:2 v/v); remark: listed apart in the source
Description: Stability in human plasma in PBS (1:2 v/v) assessed as intact compound at 37 degC measured after 72 hrs

[3] = target: T1, Protein deacetylase HDAC6 (Homo sapiens) (UniProt Q9UBN7); conditions: MV4-11, dose 50.0 nM, time 24.0 hrs
T1 sequence (whole entry): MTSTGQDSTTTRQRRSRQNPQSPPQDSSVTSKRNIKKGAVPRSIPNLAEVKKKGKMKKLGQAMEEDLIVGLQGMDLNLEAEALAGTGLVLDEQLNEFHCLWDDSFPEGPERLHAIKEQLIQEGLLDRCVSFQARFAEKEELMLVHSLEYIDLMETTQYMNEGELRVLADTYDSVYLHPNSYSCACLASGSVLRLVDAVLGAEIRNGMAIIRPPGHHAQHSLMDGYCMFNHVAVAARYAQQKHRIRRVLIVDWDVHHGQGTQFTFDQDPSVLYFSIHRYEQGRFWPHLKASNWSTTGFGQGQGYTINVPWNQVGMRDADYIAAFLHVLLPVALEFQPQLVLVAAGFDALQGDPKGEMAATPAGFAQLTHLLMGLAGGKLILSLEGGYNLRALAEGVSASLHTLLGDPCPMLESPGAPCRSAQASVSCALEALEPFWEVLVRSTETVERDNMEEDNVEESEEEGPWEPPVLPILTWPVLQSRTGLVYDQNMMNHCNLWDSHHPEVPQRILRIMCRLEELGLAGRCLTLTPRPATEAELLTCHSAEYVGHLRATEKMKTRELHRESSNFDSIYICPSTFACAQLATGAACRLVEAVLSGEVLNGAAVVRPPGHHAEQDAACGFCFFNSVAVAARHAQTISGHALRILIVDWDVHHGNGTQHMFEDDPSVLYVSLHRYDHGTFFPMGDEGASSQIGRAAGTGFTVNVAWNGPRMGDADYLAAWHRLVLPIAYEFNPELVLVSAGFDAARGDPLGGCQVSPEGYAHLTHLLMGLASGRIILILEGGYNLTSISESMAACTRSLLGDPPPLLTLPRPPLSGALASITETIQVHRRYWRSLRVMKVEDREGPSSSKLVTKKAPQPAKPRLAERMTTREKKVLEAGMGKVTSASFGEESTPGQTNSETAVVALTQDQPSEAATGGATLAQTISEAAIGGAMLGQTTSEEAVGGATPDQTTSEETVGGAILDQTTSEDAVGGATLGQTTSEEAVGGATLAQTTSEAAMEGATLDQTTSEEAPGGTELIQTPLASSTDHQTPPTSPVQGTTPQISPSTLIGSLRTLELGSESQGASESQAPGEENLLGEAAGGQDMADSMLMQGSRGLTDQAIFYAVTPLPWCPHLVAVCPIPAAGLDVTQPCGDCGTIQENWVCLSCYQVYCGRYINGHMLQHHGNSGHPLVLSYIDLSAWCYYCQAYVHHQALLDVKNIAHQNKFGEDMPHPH

[4] = target: T1, Protein deacetylase HDAC6 (Homo sapiens); conditions: MV4-11, dose 5.0 nM, time 24.0 hrs
[5] = target: T1, Protein deacetylase HDAC6 (Homo sapiens); conditions: MV4-11, dose 500.0 nM, time 24.0 hrs
Histone deacetylase 3 = Histone deacetylase 3 (Homo sapiens, UniProt O15379)
Description: Inhibition of purified recombinant human HDAC3 assessed as inhibition constant using fluorogenic substrate ZMAL (Z-Lys(Ac)-AMC as substrate measured after 90 mins by fluorescence microplate reader

[6] = target: T2, Protein deacetylase HDAC6 (Homo sapiens, UniProt Q9UBN7); assay: Inhibition of purified recombinant human HDAC6 assessed as inhibition constant using residues 379-382 (RHKK(Ac)AMC) fluorogenic substrate p53 fluorogenic peptide as substrate measured after 90 mins by fluorescence assay
T2 sequence (Q9UBN7 whole entry): T1 sequence (whole entry)

Histone deacetylase 8 = target: T3, Histone deacetylase 8 (Homo sapiens, UniProt Q9BY41); assay: Inhibition of purified recombinant human HDAC8 assessed as inhibition constant using residues 379-382 (RHKK(Ac)AMC) fluorogenic substrate p53 fluorogenic peptide as substrate measured after 90 mins by fluorescence assay
T3 sequence (Q9BY41 whole entry): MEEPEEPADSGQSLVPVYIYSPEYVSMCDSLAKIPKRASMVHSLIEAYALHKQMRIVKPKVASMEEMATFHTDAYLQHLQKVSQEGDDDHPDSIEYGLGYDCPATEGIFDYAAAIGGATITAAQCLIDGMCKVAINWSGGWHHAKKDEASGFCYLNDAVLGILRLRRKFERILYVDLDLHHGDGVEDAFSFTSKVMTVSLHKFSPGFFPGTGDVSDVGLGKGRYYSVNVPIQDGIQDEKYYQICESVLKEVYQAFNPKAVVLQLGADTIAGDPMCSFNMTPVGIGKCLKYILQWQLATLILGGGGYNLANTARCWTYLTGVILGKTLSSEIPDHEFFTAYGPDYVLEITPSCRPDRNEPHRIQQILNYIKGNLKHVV

[7] = target: T4, Polyamine deacetylase HDAC10 (Homo sapiens, UniProt Q969S8); assay: Inhibition of purified recombinant human HDAC10 assessed as inhibition constant using residues 379-382 (RHKK(Ac)AMC) fluorogenic substrate p53 fluorogenic peptide as substrate measured after 90 mins by fluorescence assay
T4 sequence (Q969S8 whole entry): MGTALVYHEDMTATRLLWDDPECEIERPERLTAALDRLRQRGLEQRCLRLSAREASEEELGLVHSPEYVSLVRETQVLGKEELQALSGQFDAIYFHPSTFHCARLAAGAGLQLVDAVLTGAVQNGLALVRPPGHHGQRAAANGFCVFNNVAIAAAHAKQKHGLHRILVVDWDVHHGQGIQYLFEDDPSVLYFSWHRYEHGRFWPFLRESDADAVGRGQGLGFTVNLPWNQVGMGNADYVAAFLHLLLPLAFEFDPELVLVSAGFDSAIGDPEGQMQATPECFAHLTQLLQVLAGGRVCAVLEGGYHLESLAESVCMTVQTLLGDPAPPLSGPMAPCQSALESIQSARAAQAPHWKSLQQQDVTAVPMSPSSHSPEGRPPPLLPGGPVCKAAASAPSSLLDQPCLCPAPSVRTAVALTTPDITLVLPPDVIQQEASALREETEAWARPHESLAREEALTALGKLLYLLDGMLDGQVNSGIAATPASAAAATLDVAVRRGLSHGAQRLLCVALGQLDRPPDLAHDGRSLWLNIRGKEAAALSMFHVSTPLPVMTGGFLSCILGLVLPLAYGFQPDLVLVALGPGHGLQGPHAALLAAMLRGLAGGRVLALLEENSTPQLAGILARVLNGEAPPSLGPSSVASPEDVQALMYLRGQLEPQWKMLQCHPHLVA

MV4-11 = assay: Antiproliferative activity against human MV4-11 cells assessed as cell viability by measuring amount of ATP after 72 hrs incubation by CellTiteer-Glo Cell viability assay; conditions: MV4-11, 72 h

Chain of Histone deacetylase 3 (O15379 whole entry, the tested form may be a part): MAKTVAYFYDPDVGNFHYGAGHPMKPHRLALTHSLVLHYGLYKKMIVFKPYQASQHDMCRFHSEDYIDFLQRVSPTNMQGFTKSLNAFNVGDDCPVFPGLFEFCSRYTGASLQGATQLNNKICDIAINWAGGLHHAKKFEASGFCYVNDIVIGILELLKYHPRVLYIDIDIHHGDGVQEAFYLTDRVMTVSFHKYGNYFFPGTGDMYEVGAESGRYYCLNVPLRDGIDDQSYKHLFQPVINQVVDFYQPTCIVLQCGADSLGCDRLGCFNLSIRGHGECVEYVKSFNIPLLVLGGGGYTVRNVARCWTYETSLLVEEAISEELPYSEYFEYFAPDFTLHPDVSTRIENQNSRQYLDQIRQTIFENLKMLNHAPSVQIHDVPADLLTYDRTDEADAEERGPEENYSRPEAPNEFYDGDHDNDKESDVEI

CN1C(=O)N2Cc3c(c4cc(OCCN5CCOCC5)ccc4n3Cc3ccc(C(=O)O)cc3)[C@](C)(C2)C1=O
remaining at 24 h (in vitro [1]): 91.4%
remaining at 72 h (in vitro [2]): 56.3%

CN1C(=O)C2CN(Cc3c2c2ccccc2n3Cc2ccc(C(=O)NO)cc2)C1=O (stereo not given)
inhibition [3]: inactive
inhibition [4]: inactive
inhibition [5]: inactive

CN1C(=O)N2Cc3c(c4cc(OCCN5CCOCC5)ccc4n3Cc3ccc(C(=O)NO)cc3)C(C3CCCCC3)(C2)C1=O (racemic)
Ki (Histone deacetylase 3): 675 nM
Ki [6]: 1.25 nM
Ki (Histone deacetylase 8): 1090 nM

CN1C(=O)N2Cc3c(c4cc(O)ccc4n3Cc3ccc(C(=O)NO)cc3)C(c3cccs3)(C2)C1=O (racemic)
Ki (Histone deacetylase 3): 118 nM
Ki [6]: 0.31 nM

CN1C(=O)N2Cc3c(c4cc(OCCN5CCOCC5)ccc4n3Cc3ccc(C(=O)NO)cc3)C(c3ccco3)(C2)C1=O (racemic)
Ki (Histone deacetylase 3): 384 nM
Ki [6]: 0.44 nM

Cn1cc(CNCC2CCN(c3ncc(C(=O)NO)cn3)CC2)c2ccccc21 [QUISINOSTAT]
Ki [7]: 1.49 nM

O=C(CCCCCCNC(=O)c1cnc(N(c2ccccc2)c2ccccc2)nc1)NO [RICOLINOSTAT]
EC50 (MV4-11): 710 nM

CC(/C=C/C(=O)NO)=C\[C@@H](C)C(=O)c1ccc(N(C)C)cc1 [TRICHOSTATIN]
EC50 (MV4-11): 15300 nM
